Measured values taken from patent US7118895B2, “Process for producing aglycon by using diglycosidase and flavor-improved food containing the aglycon and converting agent to be used in the process” (Amano Enzyme Inc., priority 2000, dated 2006).

Key:
[1] = test system: β-Glucosidase derived from A. niger; assay: Reactivity toward various isoflavone glycosides (HPLC); assay type: biochemical, Aspergillus niger; parameters: glucoside / aglycon: unit not given here; details: 55 °C, pH 4.0
Protocol: (§1) Diglycosidase was diluted with an acetate buffer of pH 4.0 to prepare a 0.75 AU/mL enzyme solution. As references, a similar operation was conducted using β-glucosidase (manufactured by Fluka) derived from Aspergillus niger, β-glucosidase (manufactured by Sigma) derived from almond, β-xylosidase derived from pectinase G (manufactured by Amano Enzyme Inc.). Each of purified products of isoflavone glycosides (glycitin, acetylglycitin, malonylglycitin, daidzin, acetyldaidzin, malonyldaidzin, genistin, acetylgenistin, malonylgenistin, all manufactured by Nacalai Tesque, Inc.) was dissolved in methanol to prepare each 2 mM substrate solution. The reaction was carried out by mixing 10 μL of a substrate solution, 200 μL of 20 mM acetate buffer (pH 4.0), and 40 μL of each purified enzyme solution at a total liquid volume of 250 μL. The reaction was carried out at 55° C. and isolation of an aglycon isoflavone from an isoflavone glycoside in the reaction mixture was detected by HLPC at 0, 1, 3, and 6 hours of the reaction.
(§2) To the reaction mixture was added 700 μL of ethanol, followed by stirring and ultrasonication. After centrifugation at 15,000 rpm and 4° C. for 10 minutes, the supernatant was filtered through a filter and then the filtrate was applied to HPLC.
(§3) The isoflavone glycoside and aglycon isoflavone contained in the filtrate was separated and detected by a high performance liquid chromatography (HPLC, Shimadzu CLASS LC-10 system) using TOSOH TSK gel ODS-80TM column (manufactured by Tosoh Corporation). […] The absorbance at 260 nm was detected by a UV detector (Shimadzu, SPD-10AV). Using purified products (manufactured by Nacalai Tesque, Inc.) of the above isoflavone glycosides and aglycon isoflavones, the isoflavone glycoside and aglycon isoflavone were quantitatively determined according to a calibration curve method. By the way, unless otherwise stated, the measuring conditions of HPLC herein mean those described in the example.

[2] = test system: Diglycosidase derived from P. multicolor; assay: as above; assay type: biochemical, Penicillium multicolor; parameters: glucoside / aglycon: unit not given here; details: 55 °C, pH 4.0
Protocol: as §1, §2, §3

Crude diglycosidase = assay: Examination of substrate concentration in the conversion into isoflavone aglycons by diglycosidase using soybean materials; assay type: biochemical, Penicillium multicolor IAM7153; details: for Decomposition efficiency: ratio of each glycoside/aglycon within its isoflavone family: roasted soy flour;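 as to Decomposition efficiency: ratio of each glycoside/aglycon within its isoflavone family: percent of the isoflavone family total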
Method in brief: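 Soybean materials (roasted soy flour, soymilk, defatted soybean, concentrated soy protein) at 2–30% (w/v) in 20 mM acetate pH 4.0 were reacted with crude diglycosidase at 55° C with shaking; enzyme solution added was 1.88 AU/mL. Samples taken at 0, 1, 3 and 6 h were ethanol-extracted and analyzed by HPLC.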

[3] = substrate concentration 2%, heat treatment of enzyme no, reaction time 0 h
[4] = substrate concentration 2%, heat treatment of enzyme no, reaction time 1 h
[5] = substrate concentration 2%, heat treatment of enzyme no, reaction time 3 h
[6] = substrate concentration 2%, heat treatment of enzyme no, reaction time 6 h
[7] = substrate concentration 2%, heat treatment of enzyme yes, reaction time 6 h
[8] = substrate concentration 5%, heat treatment of enzyme no, reaction time 0 h
[9] = substrate concentration 5%, heat treatment of enzyme no, reaction time 1 h
[10] = substrate concentration 5%, heat treatment of enzyme no, reaction time 3 h
[11] = substrate concentration 5%, heat treatment of enzyme no, reaction time 6 h
[12] = substrate concentration 5%, heat treatment of enzyme yes, reaction time 6 h
[13] = substrate concentration 10%, heat treatment of enzyme no, reaction time 0 h
[14] = substrate concentration 10%, heat treatment of enzyme no, reaction time 1 h
[15] = substrate concentration 10%, heat treatment of enzyme no, reaction time 3 h
[16] = substrate concentration 10%, heat treatment of enzyme no, reaction time 6 h
[17] = substrate concentration 10%, heat treatment of enzyme yes, reaction time 6 h

CC(=O)OC[C@H]1O[C@@H](Oc2ccc3c(=O)c(-c4ccc(O)cc4)coc3c2)[C@H](O)[C@@H](O)[C@@H]1O [acetyldaidzin, 6″-O-acetyldaidzin]
aglycon ([1]; Reaction time 0 h): 0 | glucoside ([1]; Reaction time 0 h): 100 | aglycon ([1]; Reaction time 1 h): 4.4 | glucoside ([1]; Reaction time 1 h): 95.6 | aglycon ([1]; Reaction time 3 h): 6.4 | glucoside ([1]; Reaction time 3 h): 93.6 | aglycon ([1]; Reaction time 6 h): 9 | glucoside ([1]; Reaction time 6 h): 91 | aglycon ([2]; Reaction time 0 h): 0 | glucoside ([2]; Reaction time 0 h): 100 | aglycon ([2]; Reaction time 1 h): 89.6 | glucoside ([2]; Reaction time 1 h): 10.4 | aglycon ([2]; Reaction time 3 h): 96.2 | glucoside ([2]; Reaction time 3 h): 3.8 | aglycon ([2]; Reaction time 6 h): 96.2 | glucoside ([2]; Reaction time 6 h): 3.8 | Decomposition efficiency: ratio of each glycoside/aglycon within its isoflavone family (Crude diglycosidase; [3]): 47.6% | Decomposition efficiency: ratio of each glycoside/aglycon within its isoflavone family (Crude diglycosidase; [4]): 9.2% | Decomposition efficiency: ratio of each glycoside/aglycon within its isoflavone family (Crude diglycosidase; [5]): not detected | Decomposition efficiency: ratio of each glycoside/aglycon within its isoflavone family (Crude diglycosidase; [6]): not detected | Decomposition efficiency: ratio of each glycoside/aglycon within its isoflavone family (Crude diglycosidase; [7]): 47.2% | Decomposition efficiency: ratio of each glycoside/aglycon within its isoflavone family (Crude diglycosidase; [8]): 46.1% | Decomposition efficiency: ratio of each glycoside/aglycon within its isoflavone family (Crude diglycosidase; [9]): 20.9% | Decomposition efficiency: ratio of each glycoside/aglycon within its isoflavone family (Crude diglycosidase; [10]): 12.5% | Decomposition efficiency: ratio of each glycoside/aglycon within its isoflavone family (Crude diglycosidase; [11]): 6.8% | Decomposition efficiency: ratio of each glycoside/aglycon within its isoflavone family (Crude diglycosidase; [12]): 46.1% | Decomposition efficiency: ratio of each glycoside/aglycon within its isoflavone family (Crude diglycosidase; [13]): 38.5% | Decomposition efficiency: ratio of each glycoside/aglycon within its isoflavone family (Crude diglycosidase; [14]): 30.5% | Decomposition efficiency: ratio of each glycoside/aglycon within its isoflavone family (Crude diglycosidase; [15]): 21.5% | Decomposition efficiency: ratio of each glycoside/aglycon within its isoflavone family (Crude diglycosidase; [16]): 14.9% | Decomposition efficiency: ratio of each glycoside/aglycon within its isoflavone family (Crude diglycosidase; [17]): 47.7% | Decomposition efficiency: ratio of each glycoside/aglycon within its isoflavone family (Crude diglycosidase; substrate concentration 20%, heat treatment of enzyme no, reaction time 0 h): 46.1% | Decomposition efficiency: ratio of each glycoside/aglycon within its isoflavone family (Crude diglycosidase; substrate concentration 20%, heat treatment of enzyme no, reaction time 1 h): 40.7% | Decomposition efficiency: ratio of each glycoside/aglycon within its isoflavone family (Crude diglycosidase; substrate concentration 20%, heat treatment of enzyme no, reaction time 3 h): 32.6% | Decomposition efficiency: ratio of each glycoside/aglycon within its isoflavone family (Crude diglycosidase; substrate concentration 20%, heat treatment of enzyme no, reaction time 6 h): 25.1% | Decomposition efficiency: ratio of each glycoside/aglycon within its isoflavone family (Crude diglycosidase; substrate concentration 20%, heat treatment of enzyme yes, reaction time 6 h): 47.2% | Decomposition efficiency: ratio of each glycoside/aglycon within its isoflavone family (Crude diglycosidase; substrate concentration 30%, heat treatment of enzyme no, reaction time 0 h): 47.6% | Decomposition efficiency: ratio of each glycoside/aglycon within its isoflavone family (Crude diglycosidase; substrate concentration 30%, heat treatment of enzyme no, reaction time 1 h): 46.4% | Decomposition efficiency: ratio of each glycoside/aglycon within its isoflavone family (Crude diglycosidase; substrate concentration 30%, heat treatment of enzyme no, reaction time 3 h): 42.6% | Decomposition efficiency: ratio of each glycoside/aglycon within its isoflavone family (Crude diglycosidase; substrate concentration 30%, heat treatment of enzyme no, reaction time 6 h): 34.3% | Decomposition efficiency: ratio of each glycoside/aglycon within its isoflavone family (Crude diglycosidase; substrate concentration 30%, heat treatment of enzyme yes, reaction time 6 h): 47.4% | Decomposition efficiency of daidzin family in defatted soybean (Crude diglycosidase; [3]): not detected | Decomposition efficiency of daidzin family in defatted soybean (Crude diglycosidase; [4]): not detected | Decomposition efficiency of daidzin family in defatted soybean (Crude diglycosidase; [5]): not detected | Decomposition efficiency of daidzin family in defatted soybean (Crude diglycosidase; [6]): not detected | Decomposition efficiency of daidzin family in defatted soybean (Crude diglycosidase; [7]): not detected | Decomposition efficiency of daidzin family in defatted soybean (Crude diglycosidase; [8]): not detected | Decomposition efficiency of daidzin family in defatted soybean (Crude diglycosidase; [9]): not detected | Decomposition efficiency of daidzin family in defatted soybean (Crude diglycosidase; [10]): not detected | Decomposition efficiency of daidzin family in defatted soybean (Crude diglycosidase; [11]): not detected | Decomposition efficiency of daidzin family in defatted soybean (Crude diglycosidase; [12]): not detected | Decomposition efficiency of daidzin family in defatted soybean (Crude diglycosidase; [13]): not detected | Decomposition efficiency of daidzin family in defatted soybean (Crude diglycosidase; [14]): not detected | Decomposition efficiency of daidzin family in defatted soybean (Crude diglycosidase; [15]): not detected | Decomposition efficiency of daidzin family in defatted soybean (Crude diglycosidase; [16]): not detected | Decomposition efficiency of daidzin family in defatted soybean (Crude diglycosidase; [17]): not detected
